Experimental data: ChEMBL document CHEMBL6109130, “PaAP-Activatable NIR Probe for Diagnosing, Imaging, and Discovering Small-Molecule Therapeutics against Implant-Associated Biofilm Infections” (J Med Chem, 2025)
Values belong to the molecule of their own block, whether it stands above or below them. The source made the active and inactive calls. The calls are words filed in the database; no cut-off is given here.

Key:
[1] = biological target: T1, Aminopeptidase (Pseudomonas aeruginosa) (UniProt Q9HZQ8); experiment: Inhibition of Pseudomonas aeruginosa aminopeptidase (PaAP) assessed as decrease in fluorescent intensity using fluorescent probe Hcy-NEO-Leu at 1 mM measured after 3 hrs
T1 sequence (whole entry): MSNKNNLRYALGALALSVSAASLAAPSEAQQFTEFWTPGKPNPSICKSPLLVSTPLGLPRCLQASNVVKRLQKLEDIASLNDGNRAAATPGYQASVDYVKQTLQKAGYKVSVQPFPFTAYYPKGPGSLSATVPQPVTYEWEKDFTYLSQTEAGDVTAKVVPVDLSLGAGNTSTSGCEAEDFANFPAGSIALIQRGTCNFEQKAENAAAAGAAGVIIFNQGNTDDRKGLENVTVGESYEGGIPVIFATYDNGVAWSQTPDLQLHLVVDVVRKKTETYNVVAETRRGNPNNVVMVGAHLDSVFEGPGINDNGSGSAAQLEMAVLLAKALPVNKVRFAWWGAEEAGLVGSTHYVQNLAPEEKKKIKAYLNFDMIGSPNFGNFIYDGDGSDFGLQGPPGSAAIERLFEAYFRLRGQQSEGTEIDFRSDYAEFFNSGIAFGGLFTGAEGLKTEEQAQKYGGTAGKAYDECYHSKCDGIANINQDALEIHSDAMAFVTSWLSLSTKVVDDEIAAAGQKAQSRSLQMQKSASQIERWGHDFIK

Aminopeptidase = biological target: T2, Aminopeptidase (Pseudomonas aeruginosa, UniProt Q9HZQ8); experiment: Inhibition of Pseudomonas aeruginosa aminopeptidase (PaAP) assessed as decrease in fluorescent intensity using fluorescent probe Hcy-NEO-Leu measured after 3 hrs
T2 sequence (Q9HZQ8 whole entry): T1 sequence (whole entry)

Enterococcus faecium = experiment: Antimicrobial activity against Enterococcus faecium ATCC29212 assessed as viability at 0.39 to 100 uM; format: functional, organism-based; conditions: dose 0.39-100 µM
Staphylococcus aureus = experiment: Antimicrobial activity against Staphylococcus aureus ATCC25923 assessed as viability at 0.39 to 100 uM; format: functional, organism-based; conditions: dose 0.39-100 µM
Klebsiella pneumoniae = experiment: Antimicrobial activity against Klebsiella pneumonia ATCC 700603 assessed as viability at 0.39 to 100 uM; format: functional, organism-based; conditions: dose 0.39-100 µM
Acinetobacter baumannii = experiment: Antimicrobial activity against Acinetobacter baumannii ATCC19606 assessed as viability at 0.39 to 100 uM; format: functional, organism-based; conditions: dose 0.39-100 µM
Pseudomonas aeruginosa [2] = experiment: Antimicrobial activity against Pseudomonas aeruginosa PAO1 assessed as viability at 0.39 to 100 uM; format: functional, organism-based; conditions: dose 0.39-100 µM
HepG2 = experiment: Cytotoxicity against human HepG2 cells assessed as cell viability measured after 24 hrs by CCK-8 assay; format: functional, cell-based
A-375 = experiment: Cytotoxicity against human A-375 cells assessed as cell viability measured after 24 hrs by CCK-8 assay; format: functional, cell-based
BV-2 = experiment: Cytotoxicity against mouse BV-2 cells assessed as cell viability measured after 24 hrs by CCK-8 assay; format: functional, cell-based
HK-2 = experiment: Cytotoxicity against human HK2 cells assessed as cell viability measured after 24 hrs by CCK-8 assay; format: functional, cell-based
[3] = biological target: T1, Aminopeptidase (Pseudomonas aeruginosa); experiment: Inhibition of aminopeptidase (PaAP) in wild type Pseudomonas aeruginosa assessed as decrease in fluorescent intensity using fluorescent probe Hcy-NEO-Leu at 50 uM measured after 3 hrs
[4] = biological target: T1, Aminopeptidase (Pseudomonas aeruginosa); experiment: Inhibition of aminopeptidase (PaAP) in Pseudomonas aeruginosa delta(PaAP) assessed as decrease in fluorescent intensity using fluorescent probe Hcy-NEO-Leu at 50 uM measured after 3 hrs
Pseudomonas aeruginosa [5] = experiment: Reduction in aminopeptidase (PaAP) expression level in Pseudomonas aeruginosa PAO1 at 50 to 200 uM by ELISA relative to control; format: functional; conditions: dose 50-200 µM
[6] = biological target: T1, Aminopeptidase (Pseudomonas aeruginosa); experiment: Inhibition of aminopeptidase (PaAP) in Pseudomonas aeruginosa PAO1 biofilm assessed as Hcy-NEO-Leu mediated fluorescence at 50 uM measured after 1 hr measured after 48 hrs by CLSM imaging based assay
Pseudomonas aeruginosa [7] = experiment: Anti-biofilm activity against Pseudomonas aeruginosa PAO1 on nail (implant surface) using Hcy-NEO-Leu probe at 50 uM by fluorescence imaging analysis; format: functional, organism-based
Pseudomonas aeruginosa [8] = experiment: Anti-biofilm activity against Pseudomonas aeruginosa PAO1 on surgical suture (implant surface) using Hcy-NEO-Leu probe at 50 uM by fluorescence imaging analysis; format: functional, organism-based
Pseudomonas aeruginosa [9] = experiment: Anti-biofilm activity against Pseudomonas aeruginosa PAO1 on catheter (implant surface) using Hcy-NEO-Leu probe at 50 uM by fluorescence imaging analysis; format: functional, organism-based
Pseudomonas aeruginosa [10] = experiment: Anti-biofilm activity against Pseudomonas aeruginosa PAO1 at 50 uM by crystal violet staining based optical microscopy relative to control; format: functional
Pseudomonas aeruginosa [11] = experiment: Induction of antibiotic susceptibility of Pseudomonas aeruginosa PAO1 assessed as reduction in tobramycin resistance by measuring bio-film fluorescence image at 50 uM incubated for 2 days followed by treated with tobramycin for 24 hrs by Calcein-AM/PI dual staining based Confocal microscopy; format: functional, organism-based; conditions: time 3.0 day
Pseudomonas aeruginosa [12] = experiment: Anti-biofilm activity against Pseudomonas aeruginosa PAO1 biofilm exposed to RAW264.7 cells assessed as increase in bacterial uptake by macrophages at 50 uM measured after 12 hrs by LB plate assay; format: functional, organism-based
Pseudomonas aeruginosa [13] = experiment: Anti-biofilm activity against Pseudomonas aeruginosa PAO1 deltaPaAP biofilm exposed to RAW264.7 cells assessed as increase in bacterial uptake by macrophages at 50 uM measured after 12 hrs by LB plate assay; format: functional, organism-based
Pseudomonas aeruginosa [14] = experiment: In vivo anti-biofilm activity against pre colonized mature Pseudomonas aeruginosa PAO1 subcutaneously transplanted catheter in mouse model assessed as reduction in fluorescence signal using Hcy-NEO-Leu probe relative to control group; format: functional
Pseudomonas aeruginosa [15] = experiment: In vivo anti-biofilm activity against pre colonized mature Pseudomonas aeruginosa PAO1 subcutaneously transplanted catheter in mouse model assessed as reduction in bacterial CFU using Hcy-NEO-Leu probe; format: functional, organism-based
[16] = biological target: T1, Aminopeptidase (Pseudomonas aeruginosa); experiment: Inhibition of aminopeptidase (PaAP) in Pseudomonas aeruginosa PAO1 biofilm assessed as Hcy-NEO-Leu mediated fluorescence at 1 mM measured after 1 hr measured after 48 hrs by CLSM imaging based assay
[17] = Cytotoxicity against human A-375 cells assessed as cell viability at 25 uM measured after 24 hrs by CCK-8 assay relative to control; format: toxicity, cell-based; conditions: read-out: Activity
[18] = Cytotoxicity against human HepG2 cells assessed as cell viability at 25 uM measured after 24 hrs by CCK-8 assay relative to control; format: toxicity, cell-based; conditions: read-out: Activity
[19] = Cytotoxicity against human HT-1080 cells assessed as cell viability at 25 uM measured after 24 hrs by CCK-8 assay relative to control; format: toxicity, cell-based; conditions: read-out: Activity
[20] = Cytotoxicity against mouse BV-2 cells assessed as cell viability at 25 uM measured after 24 hrs by CCK-8 assay relative to control; format: toxicity, cell-based; conditions: read-out: Activity
Pseudomonas aeruginosa [21] = experiment: Antimicrobial activity against Pseudomonas aeruginosa ATCC27853 assessed as viability at 50 uM; format: functional, organism-based

inhibition [1]: Active
Compound: O=C(NC1CCCCC1)O[C@H]1[C@H]2c3cc4c(cc3CN3CCC(=C[C@@H]1O)[C@H]23)OCO4

inhibition [1]: Active
Compound: O[C@H]1[C@H]2c3cc4c(cc3CN3CCC(=C[C@@H]1O)[C@H]23)OCO4

inhibition [1]: Active
Compound: O=C1O[C@H]2[C@H]3c4cc5c(cc4CN4CCC(=C[C@H]2N1c1ccc(Cl)cc1)[C@H]34)OCO5

inhibition [1]: Active
Compound: S=C1O[C@H]2[C@H]3c4cc5c(cc4CN4CCC(=C[C@H]2N1c1cccnc1)[C@H]34)OCO5

Compound: O[C@H]1[C@H]2c3cc4c(cc3CN3CCC(=C[C@@H]1OC(=S)Nc1ccccc1)[C@H]23)OCO4
inhibition [1]: Active
IC50 (Aminopeptidase): 36.8 µM
Activity (Enterococcus faecium): inactive
Activity (Staphylococcus aureus): inactive
Activity (Klebsiella pneumoniae): inactive
Activity (Acinetobacter baumannii): inactive
Activity (Pseudomonas aeruginosa [2]): inactive
Activity (HepG2): inactive
Activity (A-375): inactive
Activity (BV-2): inactive
Activity (HK-2): inactive
inhibition [3]: Active
inhibition [4]: inactive
Activity (Pseudomonas aeruginosa [5]): Active
inhibition [6]: Active
Activity (Pseudomonas aeruginosa [7]): Active
Activity (Pseudomonas aeruginosa [8]): Active
Activity (Pseudomonas aeruginosa [9]): Active
Activity (Pseudomonas aeruginosa [10]): <50%
Activity (Pseudomonas aeruginosa [11]): Active
Activity (Pseudomonas aeruginosa [12]): Active
Activity (Pseudomonas aeruginosa [13]): Active
fold change (FC) (Pseudomonas aeruginosa [14]): 2.65
Activity (Pseudomonas aeruginosa [15]): Active

inhibition [1]: Active
Compound: O=C(CSc1ccc(F)cc1)O[C@@H]1C(=O)C=C2CCN3Cc4cc5c(cc4[C@H]1[C@@H]23)OCO5

inhibition [1]: Active
Compound: O=C(COc1ccccc1)O[C@@H]1C(=O)C=C2CCN3Cc4cc5c(cc4[C@H]1[C@@H]23)OCO5

inhibition [1]: Active
Compound: O=C1C=C2CCN3Cc4cc5c(cc4[C@H]([C@@H]1O)[C@@H]23)OCO5

IC50 (Aminopeptidase): 521 µM
inhibition [16]: 100%
Compound: CC(C)C[C@H](NC(=O)[C@@H](O)[C@H](N)Cc1ccccc1)C(=O)O [UBENIMEX]

Compound: CC1(C)C(/C=C/C2=C3Oc4cc(O)ccc4C=C3CCC2)=[N+](CCCCCC(=O)NC[C@H]2O[C@@H](O[C@@H]3[C@@H](O)[C@H](N)C[C@H](N)[C@H]3O[C@H]3O[C@H](CN)[C@@H](O)[C@H](O)[C@H]3N)[C@H](O)[C@@H]2O[C@H]2O[C@@H](CN)[C@@H](O)[C@H](O)[C@H]2N)c2ccccc21
viability at 24 h, 25 µM [17]: > 80%
viability at 24 h, 25 µM [18]: > 80%
viability at 24 h, 25 µM [19]: > 80%
viability at 24 h, 25 µM [20]: > 80%
Activity (Pseudomonas aeruginosa [21]): inactive

inhibition [1]: Active
Compound: CC(C)(C)[Si](C)(C)OC1CCC(N2C(=S)O[C@H]3[C@H]4c5cc6c(cc5CN5CCC(=C[C@H]32)[C@H]45)OCO6)CC1 (some centres not stated)

Compound: O=C(O[C@H]1[C@H]2c3cc4c(cc3CN3CCC(=C[C@@H]1O)[C@H]23)OCO4)C1CCCCC1
inhibition [1]: Active

IC50 (Aminopeptidase): 39.2 µM
Compound: O=C(O)CCNC(=O)c1ccc(/N=N/c2ccc(O)c(C(=O)O)c2)cc1 [BALSALAZIDE]

inhibition [1]: Active
Compound: O=C(Nc1ccc(Cl)cc1)O[C@H]1[C@H]2c3cc4c(cc3CN3CCC(=C[C@@H]1O)[C@H]23)OCO4

Compound: CC(C)C[C@H](N)C(=O)Nc1ccc(COc2ccc3c(c2)OC2=C(/C=C/C4=[N+](CCCCCC(=O)NC[C@H]5O[C@@H](O[C@@H]6[C@@H](O)[C@H](N)C[C@H](N)[C@H]6O[C@H]6O[C@H](CN)[C@@H](O)[C@H](O)[C@H]6N)[C@H](O)[C@@H]5O[C@H]5O[C@@H](CN)[C@@H](O)[C@H](O)[C@H]5N)c5ccccc5C4(C)C)CCCC2=C3)cc1
viability at 24 h, 25 µM [17]: > 80%
viability at 24 h, 25 µM [18]: > 80%
viability at 24 h, 25 µM [19]: > 80%
viability at 24 h, 25 µM [20]: > 80%
Activity (Pseudomonas aeruginosa [21]): inactive
